pIC50: −log10 of the molar value.
Biological target: purified recombinant human GAC (GLS1) (Homo sapiens (Human), UniProt O94925)
Test: GLS1 Enzymatic Activity Assay (dual-coupled enzymatic assay, resorufin/Amplex UltraRed readout);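 further: glutamate from GAC coupled via glutamate oxidase and peroxidase to resorufin, read as fluorescence (ex 530, em 590 nm) kinetically or at 20 min, four-parameter logistic IC50 fit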
Assay type: biochemical

Sequence of purified recombinant human GAC (GLS1) (O94925 other isoform, or with tags, fused parts or gaps): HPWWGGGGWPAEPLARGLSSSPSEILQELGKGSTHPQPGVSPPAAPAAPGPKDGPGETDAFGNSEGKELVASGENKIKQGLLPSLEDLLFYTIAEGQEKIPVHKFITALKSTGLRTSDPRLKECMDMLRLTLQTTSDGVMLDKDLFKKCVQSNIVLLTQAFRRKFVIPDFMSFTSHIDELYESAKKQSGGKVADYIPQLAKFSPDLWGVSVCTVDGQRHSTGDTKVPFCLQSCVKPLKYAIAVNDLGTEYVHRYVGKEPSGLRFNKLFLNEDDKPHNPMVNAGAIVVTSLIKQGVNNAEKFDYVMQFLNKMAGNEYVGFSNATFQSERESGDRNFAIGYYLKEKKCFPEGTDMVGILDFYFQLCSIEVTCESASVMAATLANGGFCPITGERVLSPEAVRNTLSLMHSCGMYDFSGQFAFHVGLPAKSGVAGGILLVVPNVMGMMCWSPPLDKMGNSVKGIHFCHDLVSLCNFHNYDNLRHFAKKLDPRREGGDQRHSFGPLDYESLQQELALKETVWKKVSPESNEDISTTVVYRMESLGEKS

SMILES | pIC50
CC(C)(C)OC(=O)N1CCC(Cn2cc(CCCCn3cc(C(=O)NCc4cccc(OC(F)(F)F)c4)nn3)nn2)CC1 [Example 8, Tert-butyl 4-((4-(4-(4-(3-(trifluoromethoxy)benzylcarbamoyl)-1H-1,2,3-triazol-1-yl)butyl)-1H-1,2,3-triazol-1-yl)methyl)piperidine-1-carboxylate] | 6.30 to 7.00
CS(=O)(=O)NCc1cn(CCCCn2cc(C(=O)NCc3cccc(OC(F)(F)F)c3)nn2)nn1 [Example 9, 1-(4-(4-(Methylsulfonamidomethyl)-1H-1,2,3-triazol-1-yl)butyl)-N-(3-(trifluoromethoxy)benzyl)-1H-1,2,3-triazole-4-carboxamide] | 5.30 to 6.30
CC(C)NC(=O)c1cn(CCCCc2nnc(NC(=O)Cc3cccc(OC(F)(F)F)c3)s2)nn1 [Example 10, N-(propan-2-yl)-1-[4-(5-{2-[3-(trifluoromethoxy)phenyl]acetamido}-1,3,4-thiadiazol-2-yl)butyl]-1H-1,2,3-triazole-4-carboxamide] | 6.30 to 7.00
O=C(Cc1ccccc1)Nc1nnc(CCCCn2cc(C(=O)NCCN3CCC(O)CC3)nn2)s1 [Example 14, N-[2-(4-hydroxypiperidin-1-yl)ethyl]-1-{4-[5-(2-phenylacetamido)-1,3,4-thiadiazol-2-yl]butyl}-1H-1,2,3-triazole-4-carboxamide] | 5.30 to 6.30
CC(C)NC(=O)c1nnc(CCCCn2cc(C(=O)NCc3ccccc3)nn2)s1 [Example 38, 5-{4-[4-(benzylcarbamoyl)-1H-1,2,3-triazol-1-yl]butyl}-N-(propan-2-yl)-1,3,4-thiadiazole-2-carboxamide] | 5.30 to 6.30
O=C(NCc1ccccc1)c1cn(CCCCc2nnc(C(=O)NCc3ccccn3)s2)nn1 [Example 40, 5-{4-[4-(benzylcarbamoyl)-1H-1,2,3-triazol-1-yl]butyl}-N-(pyridin-2-ylmethyl)-1,3,4-thiadiazole-2-carboxamide] | 6.30 to 7.00
CC(C)(C)OC(=O)N1CCC(Cn2cc(CCCCn3cc(C(=O)NCc4cccc(OC(F)(F)F)c4)nn3)nn2)CC1 [Example 53] | 5.30 to 6.30
CC(C)CCNCc1cn(CCCCn2cc(C(=O)NCc3cccc(OC(F)(F)F)c3)nn2)nn1 [Example 57, 1-(4-(4-((isopentylamino)methyl)-1H-1,2,3-triazol-1-yl)butyl)-N-(3-(trifluoromethoxy)benzyl)-1H-1,2,3-triazole-4-carboxamide] | 5.30 to 6.30
CCC(=O)NCc1cn(CCCCn2cc(C(=O)NCc3cccc(OC(F)(F)F)c3)nn2)nn1 [Example 58, 1-(4-(4-(propionamidomethyl)-1H-1,2,3-triazol-1-yl)butyl)-N-(3-(trifluoromethoxy)benzyl)-1H-1,2,3-triazole-4-carboxamide] | 5.30 to 6.30
O=C(NCc1ccccn1)c1cn(CCCCc2nnc(C(=O)NCc3ccccn3)s2)nn1 [Example 66, N-(pyridin-2-ylmethyl)-5-(4-{4-[(pyridin-2-ylmethyl)carbamoyl)-1H-1,2,3-triazol-1-yl}butyl)-1,3,4-thiadiazole-2-carboxamide] | 5.30 to 6.30

Results, then the molecule that gave them:

pIC50 | SMILES
6.30 to 7.00 | Cc1ccc(CNC(=O)c2nnc(CCCCn3cc(C(=O)NCc4ccccn4)nn3)s2)cn1 [Example 67, N-[(6-methylpyridin-3-yl)methyl]-5(4-{4-[(pyridin-2-ylmethyl)carbamoyl]-1H-1,2,3-triazol-1-yl}butyl)-1,3,4-thiadiazole-2-carboxamide]
5.30 to 6.30 | O=C(NCc1ccccn1)c1cn(CCCCc2nnc(C(=O)NCC3CC3)s2)nn1 [Example 68, N-(cyclopropylmethyl)-5-(4-{4-[(pyridin-2-ylmethyl)carbamoyl]-1H-1,2,3-triazol-1-yl}butyl)-1,3,4-thiadiazole-2-carboxamide]
5.30 to 6.30 | O=C(NCC1CC1)c1cn(CCCCc2nnc(C(=O)NCc3ccccn3)s2)nn1 [Example 69, 5-(4-{4-[(cyclopropylmethyl)carbamoyl]-1H-1,2,3-triazol-1-yl}butyl)-N-(pyridin-2-ylmethyl)-1,3,4-thiadiazole-2-carboxamide]
5.30 to 6.30 | Cc1ccc(CNC(=O)c2nnc(CCCCn3cc(C(=O)NCC4CC4)nn3)s2)cn1 [Example 70, 5-(4-{4-[(cyclopropylmethyl)carbamoyl]-1H-1,2,3-triazol-1-yl}butyl)-N-[(6-methylpyridin-3-yl)methyl]-1,3,4-thiadiazole-2-carboxamide]
5.30 to 6.30 | O=C(NCc1ccccn1)c1cn(CCCCn2cc(C(=O)NCc3ccccn3)nn2)nn1 [Example 71, N-(pyridin-2-ylmethyl)-1-(4-{4-[(pyridin-2-ylmethyl)carbamoyl]-1H-1,2,3-triazol-1-yl}butyl)-1H-1,2,3-triazole-4-carboxamide]
6.30 to 7.00 | Cc1ccc(CNC(=O)c2cn(CCCCc3nnc(C(=O)NCC4CN(C(=O)OC(C)(C)C)C4)s3)nn2)cn1 [Example 74, tert-butyl 3-[({5-[4-(4-{[(6-methylpyridin-3-yl)methyl]carbamoyl}-1H-1,2,3-triazol-1-yl)butyl]-1,3,4-thiadiazol-2-yl}formamido)methyl] azetidine-1-carboxylate]
5.30 to 6.30 | O=C(CC1CC1)Nc1cn(CCCCn2cc(C(=O)NCc3ccccn3)nn2)nn1 [Example 278, 1-{4-[4-(2-cyclopropylacetamido)-1H-1,2,3-triazol-1-yl]butyl}-N-(pyridin-2-ylmethyl)-1H-1,2,3-triazole-4-carboxamide]
5.30 to 6.30 | O=C(CC1CC1)Nc1cn(CCCCn2cc(C(=O)NCC3CCCCC3)nn2)nn1 [Example 281, N-(cyclohexylmethyl)-1-{4-[4-(2-cyclopropylacetamido)-1H-1,2,3-triazol-1-yl]butyl}-1H-1,2,3-triazole-4-carboxamide]
5.30 to 6.30 | O=C(CC1CCCC1)Nc1cn(CCCCn2cc(C(=O)NCC3CCCCC3)nn2)nn1 [Example 282, N-(cyclohexylmethyl)-1-{4-[4-(2-cyclopentylacetamido)-1H-1,2,3-triazol-1-yl]butyl}-1H-1,2,3-triazole-4-carboxamide]
5.30 to 6.30 | O=C(CC1CCCCC1)Nc1cn(CCCCn2cc(C(=O)NCC3CCCCC3)nn2)nn1 [Example 283, 1-{4-[4-(2-cyclohexylacetamido)-1H-1,2,3-triazol-1-yl]butyl}-N-(cyclohexylmethyl)-1H-1,2,3-triazole-4-carboxamide]
5.30 to 6.30 | O=C(CC1CC1)Nc1cn(CCCCn2cc(C(=O)NCC3CCCC3)nn2)nn1 [Example 287, N-(cyclopentylmethyl)-1-{4-[4-(2-cyclopropylacetamido)-1H-1,2,3-triazol-1-yl]butyl}-1H-1,2,3-triazole-4-carboxamide]
5.30 to 6.30 | O=C(CC1CCCCC1)Nc1cn(CCCCn2cc(C(=O)NCC3CCCC3)nn2)nn1 [Example 289, 1-{4-[4-(2-cyclohexylacetamido)-1H-1,2,3-triazol-1-yl]butyl}-N-(cyclopentylmethyl)-1H-1,2,3-triazole-4-carboxamide]
5.30 to 6.30 | O=C(Cc1cccnc1)Nc1cn(CCCCn2cc(C(=O)NCC3CCCC3)nn2)nn1 [Example 290, N-(cyclopentylmethyl)-1-(4-{4-[2-(pyridin-3-yl)acetamido]-1H-1,2,3-triazol-1-yl}butyl)-1H-1,2,3-triazole-4-carboxamide]
5.30 to 6.30 | O=C(Cc1ccccn1)Nc1cn(CCCCn2cc(C(=O)NCC3CCCC3)nn2)nn1 [Example 291, N-(cyclopentylmethyl)-1-(4-{4-[2-(pyridin-2-yl)acetamido]-1H-1,2,3-triazol-1-yl}butyl)-1H-1,2,3-triazole-4-carboxamide]

From patent US10344025B2, “GLS1 inhibitors for treating disease” (Board of Regents, The University of Texas System, priority 2014, dated 2019)
